This passage reports normalised inhibition (eCFP-eYFP dual reporter) results from the OligoGym collection.

Oligonucleotides are given in HELM: sugar(base)linkage, 5' to 3'; d 2'-deoxyribose, r ribose, m 2'-O-methylribose, p phosphate. ss, as = sense and antisense strand

This series has as its target UBE2D3. In words: reporter assay of Huesken 2005. The note with it: siRNA.
Further: test concentration or dose not given here.

“RNA1{r(G)p.r(G)p.r(C)p.r(A)p.r(A)p.r(G)p.r(C)p.r(C)p.r(A)p.r(C)p.r(A)p.r(A)p.r(U)p.r(U)p.r(A)p.r(U)p.r(G)p.r(G)p.r(G)p.d(T)p.d(T)}|RNA2{r(C)p.r(C)p.r(C)p.r(A)p.r(U)p.r(A)p.r(A)p.r(U)p.r(U)p.r(G)p.r(U)p.r(G)p.r(G)p.r(C)p.r(U)p.r(U)p.r(G)p.r(C)p.r(C)p.d(A)p.d(A)}$$$RNA1{StrandType:ss}|RNA2{StrandType:as}$” had a normalised inhibition (eCFP-eYFP dual reporter) of 60.2%.

The substance “RNA1{r(U)p.r(A)p.r(U)p.r(G)p.r(U)p.r(U)p.r(U)p.r(C)p.r(A)p.r(U)p.r(U)p.r(G)p.r(G)p.r(C)p.r(A)p.r(A)p.r(G)p.r(C)p.r(C)p.d(T)p.d(T)}|RNA2{r(G)p.r(G)p.r(C)p.r(U)p.r(U)p.r(G)p.r(C)p.r(C)p.r(A)p.r(A)p.r(U)p.r(G)p.r(A)p.r(A)p.r(A)p.r(C)p.r(A)p.r(U)p.r(A)p.d(T)p.d(C)}$$$RNA1{StrandType:ss}|RNA2{StrandType:as}$” registered a normalised inhibition (eCFP-eYFP dual reporter) of 44.7%. The substance “RNA1{r(A)p.r(C)p.r(U)p.r(A)p.r(C)p.r(C)p.r(C)p.r(C)p.r(U)p.r(U)p.r(C)p.r(A)p.r(A)p.r(A)p.r(C)p.r(C)p.r(A)p.r(C)p.r(C)p.d(T)p.d(T)}|RNA2{r(G)p.r(G)p.r(U)p.r(G)p.r(G)p.r(U)p.r(U)p.r(U)p.r(G)p.r(A)p.r(A)p.r(G)p.r(G)p.r(G)p.r(G)p.r(U)p.r(A)p.r(G)p.r(U)p.d(C)p.d(T)}$$$RNA1{StrandType:ss}|RNA2{StrandType:as}$” displayed a normalised inhibition (eCFP-eYFP dual reporter) of 63.1%.

“RNA1{r(U)p.r(C)p.r(U)p.r(A)p.r(A)p.r(G)p.r(A)p.r(U)p.r(C)p.r(A)p.r(C)p.r(A)p.r(G)p.r(U)p.r(G)p.r(G)p.r(U)p.r(C)p.r(G)p.d(T)p.d(T)}|RNA2{r(C)p.r(G)p.r(A)p.r(C)p.r(C)p.r(A)p.r(C)p.r(U)p.r(G)p.r(U)p.r(G)p.r(A)p.r(U)p.r(C)p.r(U)p.r(U)p.r(A)p.r(G)p.r(A)p.d(A)p.d(T)}$$$RNA1{StrandType:ss}|RNA2{StrandType:as}$” registered a normalised inhibition (eCFP-eYFP dual reporter) of 43.3%. The substance “RNA1{r(A)p.r(A)p.r(U)p.r(G)p.r(A)p.r(C)p.r(A)p.r(G)p.r(C)p.r(C)p.r(C)p.r(A)p.r(U)p.r(A)p.r(U)p.r(C)p.r(A)p.r(A)p.r(G)p.d(T)p.d(T)}|RNA2{r(C)p.r(U)p.r(U)p.r(G)p.r(A)p.r(U)p.r(A)p.r(U)p.r(G)p.r(G)p.r(G)p.r(C)p.r(U)p.r(G)p.r(U)p.r(C)p.r(A)p.r(U)p.r(U)p.d(A)p.d(G)}$$$RNA1{StrandType:ss}|RNA2{StrandType:as}$” showed a normalised inhibition (eCFP-eYFP dual reporter) of 80%. For the substance “RNA1{r(C)p.r(C)p.r(U)p.r(U)p.r(C)p.r(A)p.r(A)p.r(A)p.r(C)p.r(C)p.r(A)p.r(C)p.r(C)p.r(U)p.r(A)p.r(A)p.r(G)p.r(G)p.r(U)p.d(T)p.d(T)}|RNA2{r(A)p.r(C)p.r(C)p.r(U)p.r(U)p.r(A)p.r(G)p.r(G)p.r(U)p.r(G)p.r(G)p.r(U)p.r(U)p.r(U)p.r(G)p.r(A)p.r(A)p.r(G)p.r(G)p.d(G)p.d(G)}$$$RNA1{StrandType:ss}|RNA2{StrandType:as}$”, the normalised inhibition (eCFP-eYFP dual reporter) is 94.5%. As to “RNA1{r(U)p.r(A)p.r(G)p.r(U)p.r(G)p.r(C)p.r(C)p.r(A)p.r(G)p.r(A)p.r(G)p.r(A)p.r(U)p.r(U)p.r(G)p.r(C)p.r(A)p.r(C)p.r(G)p.d(T)p.d(T)}|RNA2{r(C)p.r(G)p.r(U)p.r(G)p.r(C)p.r(A)p.r(A)p.r(U)p.r(C)p.r(U)p.r(C)p.r(U)p.r(G)p.r(G)p.r(C)p.r(A)p.r(C)p.r(U)p.r(A)p.d(G)p.d(G)}$$$RNA1{StrandType:ss}|RNA2{StrandType:as}$”, the normalised inhibition (eCFP-eYFP dual reporter) was 62.4%. As to “RNA1{r(U)p.r(U)p.r(G)p.r(C)p.r(A)p.r(U)p.r(U)p.r(U)p.r(A)p.r(C)p.r(A)p.r(A)p.r(C)p.r(A)p.r(A)p.r(G)p.r(A)p.r(A)p.r(U)p.d(T)p.d(T)}|RNA2{r(A)p.r(U)p.r(U)p.r(C)p.r(U)p.r(U)p.r(G)p.r(U)p.r(U)p.r(G)p.r(U)p.r(A)p.r(A)p.r(A)p.r(U)p.r(G)p.r(C)p.r(A)p.r(A)p.d(C)p.d(C)}$$$RNA1{StrandType:ss}|RNA2{StrandType:as}$”, the normalised inhibition (eCFP-eYFP dual reporter) was found to be 68.4%.
